# Source: ChEMBL document CHEMBL4325881, “Facile synthesis of 2-aryl 5-hydroxy benzo[d]oxazoles and their in vitro anti-proliferative effects on various cancer cell lines” (Bioorg Med Chem Lett, 2018)
# The source made the active and inactive calls. No cut-off for these calls is given here.
# Experiments:
# A549 = assay: Cytotoxicity against human A549 cells assessed as reduction in cell viability after 48 hrs by MTT assay; type: functional, cell-based; conditions: A549, 48 h
# [1] = Cytotoxicity against human […] cells assessed as reduction in cell viability after 48 hrs by MTT assay; type: functional, cell-based
# MDA-MB-231 = assay: Cytotoxicity against human MDA-MB-231 cells assessed as reduction in cell viability after 48 hrs by MTT assay; type: functional, cell-based; conditions: MDA-MB-231, 48 h
# HeLa = assay: Cytotoxicity against human HeLa cells assessed as reduction in cell viability after 48 hrs by MTT assay; type: functional, cell-based
# HepG2 [2] = assay: Cytotoxicity against human HepG2 cells assessed as reduction in cell viability after 48 hrs by MTT assay; type: functional, cell-based; conditions: HepG2, 48 h
# HaCaT = assay: Cytotoxicity against human HaCaT cells assessed as reduction in cell viability after 48 hrs by MTT assay; type: cell-based
# HepG2 [3] = assay: Induction of apoptosis in human HepG2 cells after 48 hrs by annexin V-FITC/propidium iodide staining-based flow cytometry analysis; type: functional, cell-based
# HepG2 [4] = assay: Induction of apoptosis in human HepG2 cells assessed as early apoptotic cells at 0.5 uM after 48 hrs by annexin V-FITC/propidium iodide staining-based flow cytometry analysis (reference value: 0.98%); type: functional
# HepG2 [5] = assay: Induction of apoptosis in human HepG2 cells assessed as late apoptotic cells at 0.5 uM after 48 hrs by annexin V-FITC/propidium iodide staining-based flow cytometry analysis (reference value: 0.26%); type: functional
# HepG2 [6] = assay: Induction of apoptosis in human HepG2 cells assessed as necrotic cells at 0.5 uM after 48 hrs by annexin V-FITC/propidium iodide staining-based flow cytometry analysis (reference value: 0.62%); type: functional
# HepG2 [7] = assay: Induction of apoptosis in human HepG2 cells assessed as viable cells at 0.5 uM after 48 hrs by annexin V-FITC/propidium iodide staining-based flow cytometry analysis (reference value: 98.14%); type: functional; conditions: HepG2, 48 h, read-out: Activity
# HepG2 [8] = assay: Induction of apoptosis in human HepG2 cells assessed as early apoptotic cells at 1 uM after 48 hrs by annexin V-FITC/propidium iodide staining-based flow cytometry analysis (reference value: 0.98%); type: functional
# HepG2 [9] = assay: Induction of apoptosis in human HepG2 cells assessed as late apoptotic cells at 1 uM after 48 hrs by annexin V-FITC/propidium iodide staining-based flow cytometry analysis (reference value: 0.26%); type: functional
# HepG2 [10] = assay: Induction of apoptosis in human HepG2 cells assessed as necrotic cells at 1 uM after 48 hrs by annexin V-FITC/propidium iodide staining-based flow cytometry analysis (reference value: 0.62%); type: functional
# HepG2 [11] = assay: Induction of apoptosis in human HepG2 cells assessed as viable cells at 1 uM after 48 hrs by annexin V-FITC/propidium iodide staining-based flow cytometry analysis (reference value: 98.14%); type: functional; conditions: HepG2, 48 h, read-out: Activity
# HepG2 [12] = assay: Induction of apoptosis in human HepG2 cells assessed as early apoptotic cells at 2.5 uM after 48 hrs by annexin V-FITC/propidium iodide staining-based flow cytometry analysis (reference value: 0.98%); type: functional
# HepG2 [13] = assay: Induction of apoptosis in human HepG2 cells assessed as late apoptotic cells at 2.5 uM after 48 hrs by annexin V-FITC/propidium iodide staining-based flow cytometry analysis (reference value: 0.26%); type: functional
# HepG2 [14] = assay: Induction of apoptosis in human HepG2 cells assessed as necrotic cells at 2.5 uM after 48 hrs by annexin V-FITC/propidium iodide staining-based flow cytometry analysis (reference value: 0.62%); type: functional
# HepG2 [15] = assay: Induction of apoptosis in human HepG2 cells assessed as viable cells at 2.5 uM after 48 hrs by annexin V-FITC/propidium iodide staining-based flow cytometry analysis (reference value: 98.14%); type: functional; conditions: HepG2, 48 h, read-out: Activity
# HepG2 [16] = assay: Induction of apoptosis in human HepG2 cells assessed as cell shrinkage at 0.5 to 2.5 uM after 48 hrs by inverted phase contrast microscopic analysis; type: functional, cell-based
# HepG2 [17] = assay: Induction of apoptosis in human HepG2 cells assessed as […] deformation at 0.5 to 2.5 uM after 48 hrs by inverted phase contrast microscopic analysis; type: functional, cell-based
# HepG2 [18] = assay: Induction of apoptosis in human HepG2 cells assessed as reduction in number of viable cells at 0.5 to 2.5 uM after 48 hrs by inverted phase contrast microscopic analysis; type: functional, cell-based
# HepG2 [19] = assay: Induction of apoptosis in human HepG2 cells assessed as cell shrinkage after 48 hrs by acridine orange/ethidium bromide staining-based fluorescence microscopic analysis; type: functional
# HepG2 [20] = assay: Induction of apoptosis in human HepG2 cells assessed as membrane blebbing after 48 hrs by acridine orange/ethidium bromide staining-based fluorescence microscopic analysis; type: functional, cell-based
# HepG2 [21] = assay: Induction of apoptosis in human HepG2 cells assessed as chromatin condensation after 48 hrs by acridine orange/ethidium bromide staining-based fluorescence microscopic analysis; type: functional, cell-based
# HepG2 [22] = assay: Induction of apoptosis in human HepG2 cells assessed as apoptotic body formation after 48 hrs by acridine orange/ethidium bromide staining-based fluorescence microscopic analysis; type: functional, cell-based
# HepG2 [23] = assay: Induction of apoptosis in human HepG2 cells assessed as condensed nuclei at 0.5 to 2.5 uM after 48 hrs by DAPI staining-based fluorescence microscopic analysis; type: functional, cell-based
# HepG2 [24] = assay: Induction of apoptosis in human HepG2 cells assessed as horse-shoe shaped nuclei at 0.5 to 2.5 uM after 48 hrs by DAPI staining-based fluorescence microscopic analysis; type: functional, cell-based
# HepG2 [25] = assay: Induction of apoptosis in human HepG2 cells assessed as fragmented nuclei at 0.5 to 2.5 uM after 48 hrs by DAPI staining-based fluorescence microscopic analysis; type: functional, cell-based
# HepG2 [26] = assay: Cell cycle arrest in human HepG2 cells assessed as accumulation at sub-G1 phase at 0.5 uM after 24 hrs by propidium iodide staining based flow cytometric analysis (reference value: 1.73%); type: functional
# HepG2 [27] = assay: Cell cycle arrest in human HepG2 cells assessed as accumulation at G0/G1 phase at 0.5 uM after 24 hrs by propidium iodide staining based flow cytometric analysis (reference value: 49.93%); type: functional
# HepG2 [28] = assay: Cell cycle arrest in human HepG2 cells assessed as accumulation at S phase at 0.5 uM after 24 hrs by propidium iodide staining based flow cytometric analysis (reference value: 7.57%); type: functional
# HepG2 [29] = assay: Cell cycle arrest in human HepG2 cells assessed as accumulation at G2/M phase at 0.5 uM after 24 hrs by propidium iodide staining based flow cytometric analysis (reference value: 28.79%); type: functional
# HepG2 [30] = assay: Cell cycle arrest in human HepG2 cells assessed as accumulation at sub-G1 phase at 1 uM after 24 hrs by propidium iodide staining based flow cytometric analysis (reference value: 1.73%); type: functional
# HepG2 [31] = assay: Cell cycle arrest in human HepG2 cells assessed as accumulation at G0/G1 phase at 1 uM after 24 hrs by propidium iodide staining based flow cytometric analysis (reference value: 49.93%); type: functional
# HepG2 [32] = assay: Cell cycle arrest in human HepG2 cells assessed as accumulation at S phase at 1 uM after 24 hrs by propidium iodide staining based flow cytometric analysis (reference value: 7.57%); type: functional
# HepG2 [33] = assay: Cell cycle arrest in human HepG2 cells assessed as accumulation at G2/M phase at 1 uM after 24 hrs by propidium iodide staining based flow cytometric analysis (reference value: 28.79%); type: functional
# HepG2 [34] = assay: Cell cycle arrest in human HepG2 cells assessed as accumulation at sub-G1 phase at 2.5 uM after 24 hrs by propidium iodide staining based flow cytometric analysis (reference value: 1.73%); type: functional
# HepG2 [35] = assay: Cell cycle arrest in human HepG2 cells assessed as accumulation at G0/G1 phase at 2.5 uM after 24 hrs by propidium iodide staining based flow cytometric analysis (reference value: 49.93%); type: functional
# HepG2 [36] = assay: Cell cycle arrest in human HepG2 cells assessed as accumulation at S phase at 2.5 uM after 24 hrs by propidium iodide staining based flow cytometric analysis (reference value: 7.57%); type: functional
# HepG2 [37] = assay: Cell cycle arrest in human HepG2 cells assessed as accumulation at G2/M phase at 2.5 uM after 24 hrs by propidium iodide staining based flow cytometric analysis (reference value: 28.79%); type: functional
# HepG2 [38] = assay: Induction of ROS accumulation in human HepG2 cells after 48 hrs by DCF-DA staining based fluorescence microscopic analysis; type: functional, cell-based
# HepG2 [39] = assay: Anticlonogenic activity against human HepG2 cells incubated for 24 hrs followed by fresh media replacement and measured after 12 days by crystal violet staining based assay; type: functional, cell-based
# HepG2 [40] = assay: Induction of apoptosis in human HepG2 cells assessed as mitochondrial polarized cells level at 0.5 uM after 48 hrs by JC-1 staining based flow cytometric method (reference value: 93.02%); type: functional
# HepG2 [41] = assay: Induction of apoptosis in human HepG2 cells assessed as mitochondrial depolarized cells level at 0.5 uM after 48 hrs by JC-1 staining based flow cytometric method (reference value: […]); type: functional
# HepG2 [42] = assay: Induction of apoptosis in human HepG2 cells assessed as mitochondrial polarized cells level at 1 uM after 48 hrs by JC-1 staining based flow cytometric method (reference value: 93.02%); type: functional
# HepG2 [43] = assay: Induction of apoptosis in human HepG2 cells assessed as mitochondrial depolarized cells level at 1 uM after 48 hrs by JC-1 staining based flow cytometric method (reference value: […]); type: functional
# HepG2 [44] = assay: Induction of apoptosis in human HepG2 cells assessed as mitochondrial polarized cells level at 2.5 uM after 48 hrs by JC-1 staining based flow cytometric method (reference value: 93.02%); type: functional
# HepG2 [45] = assay: Induction of apoptosis in human HepG2 cells assessed as mitochondrial depolarized cells level at 2.5 uM after 48 hrs by JC-1 staining based flow cytometric method (reference value: […]); type: functional
# HepG2 [46] = assay: Induction of apoptosis in human HepG2 cells assessed as increase in loss of mitochondrial membrane potential after 48 hrs by JC-1 staining based flow cytometric method; type: functional, cell-based
smiles,measurement,setting,value
COc1ccccc1-c1nc2c(C=O)c(O)ccc2o1,IC50,A549,2.8 µM
same,IC50,[1],10.4 µM
same,IC50,MDA-MB-231,5.95 µM
same,IC50,HeLa,8.08 µM
same,IC50,HepG2 [2],10.8 µM
same,IC50,HaCaT,8.38 µM
O=Cc1c(O)ccc2oc(-c3cccc(Cl)c3)nc12,IC50,A549,1.87 µM
same,IC50,[1],0.98 µM
same,IC50,MDA-MB-231,1.33 µM
same,IC50,HeLa,2.18 µM
same,IC50,HepG2 [2],0.81 µM
same,IC50,HaCaT,17.8 µM
same,Activity,HepG2 [3],Dose-dependent effect
same,Activity,HepG2 [4],12.5%
same,Activity,HepG2 [5],0.75%
same,Activity,HepG2 [6],2.42%
same,viability at 0.5 µM,HepG2 [7],83.3%
same,Activity,HepG2 [8],34.2%
same,Activity,HepG2 [9],0.55%
same,Activity,HepG2 [10],1.84%
same,viability at 1 µM,HepG2 [11],63.4%
same,Activity,HepG2 [12],56.17%
same,Activity,HepG2 [13],1.64%
same,Activity,HepG2 [14],2.01%
same,viability at 2.5 µM,HepG2 [15],40.2%
same,Activity,HepG2 [16],Active
same,Activity,HepG2 [17],Active
same,Activity,HepG2 [18],Active
same,Activity,HepG2 [19],Dose-dependent effect
same,Activity,HepG2 [20],Dose-dependent effect
same,Activity,HepG2 [21],Dose-dependent effect
same,Activity,HepG2 [22],Dose-dependent effect
same,Activity,HepG2 [23],Active
same,Activity,HepG2 [24],Active
same,Activity,HepG2 [25],Active
same,Activity,HepG2 [26],2.42%
same,Activity,HepG2 [27],59.01%
same,Activity,HepG2 [28],6.61%
same,Activity,HepG2 [29],23.05%
same,Activity,HepG2 [30],5.64%
same,Activity,HepG2 [31],50.36%
same,Activity,HepG2 [32],5.53%
same,Activity,HepG2 [33],27.15%
same,Activity,HepG2 [34],13.2%
same,Activity,HepG2 [35],45.52%
same,Activity,HepG2 [36],8.32%
same,Activity,HepG2 [37],22.57%
same,Activity,HepG2 [38],Dose-dependent effect
same,Activity,HepG2 [39],Dose-dependent effect
same,Activity,HepG2 [40],85.46%
same,Activity,HepG2 [41],14.91%
same,Activity,HepG2 [42],74.54%
same,Activity,HepG2 [43],25.87%
same,Activity,HepG2 [44],29.19%
same,Activity,HepG2 [45],71.49%
same,Activity,HepG2 [46],Dose-dependent effect
